Experimental data as given in ChEMBL document CHEMBL4376861, “Docking Finds GPCR Ligands in Dark Chemical Matter” (J Med Chem, 2020).

Experiments:
[1] = biological target: T1, Adenosine receptor A2a (Homo sapiens, UniProt P29274); assay: Displacement of [3H]ZM241385 from adenosine A2A receptor in human HeLa cell membranes at 10 uM incubated for 30 mins by scintillation counting method relative to control
[2] = biological target: T2, D(4) dopamine receptor (Homo sapiens, UniProt P21917); assay: Displacement of [3H]spiperone from human dopamine D4 receptor expressed in cell membranes incubated for 60 mins by scintillation counting method
T2 sequence (P21917 whole entry): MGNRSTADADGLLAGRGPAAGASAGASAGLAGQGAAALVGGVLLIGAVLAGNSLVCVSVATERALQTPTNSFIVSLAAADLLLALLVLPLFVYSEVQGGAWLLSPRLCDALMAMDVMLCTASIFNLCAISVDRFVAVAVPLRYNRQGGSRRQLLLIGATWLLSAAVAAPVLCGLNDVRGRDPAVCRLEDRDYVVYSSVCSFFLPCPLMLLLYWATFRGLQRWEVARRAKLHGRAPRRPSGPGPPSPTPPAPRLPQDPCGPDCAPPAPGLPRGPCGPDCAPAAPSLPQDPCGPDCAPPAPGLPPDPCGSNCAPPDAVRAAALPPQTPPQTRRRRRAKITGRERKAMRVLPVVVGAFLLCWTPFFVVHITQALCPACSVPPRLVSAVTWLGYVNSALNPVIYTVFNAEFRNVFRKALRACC

[3] = biological target: T3, D(3) dopamine receptor (Homo sapiens, UniProt P35462); assay: Displacement of [3H]spiperone from human dopamine D3 receptor expressed in cell membranes incubated for 60 mins by scintillation counting method
[4] = biological target: T4, Adenosine receptor A1 (Homo sapiens) (UniProt P30542); assay: Displacement of [3H]DPCPX from human adenosine […] receptor expressed in […] cell membranes at 10 uM incubated for 60 mins by scintillation counting method relative to control
T4 sequence (whole entry): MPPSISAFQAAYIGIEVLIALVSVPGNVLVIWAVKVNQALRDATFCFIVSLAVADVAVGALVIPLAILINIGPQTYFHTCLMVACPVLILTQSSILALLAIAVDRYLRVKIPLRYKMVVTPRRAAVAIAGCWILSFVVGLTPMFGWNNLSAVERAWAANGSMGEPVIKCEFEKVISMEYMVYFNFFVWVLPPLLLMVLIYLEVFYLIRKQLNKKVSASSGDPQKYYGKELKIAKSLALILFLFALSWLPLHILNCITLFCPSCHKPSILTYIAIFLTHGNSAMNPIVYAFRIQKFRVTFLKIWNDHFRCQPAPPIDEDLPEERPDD

[5] = biological target: T1, Adenosine receptor A2a; assay: Displacement of [3H]ZM241385 from adenosine A2A receptor in human HeLa cell membranes incubated for 30 mins by scintillation counting method
[6] = biological target: T5, D(4) dopamine receptor (Homo sapiens) (UniProt P21917); assay: Displacement of [3H]spiperone from human dopamine D4 receptor expressed in cell membranes at 10 uM incubated for 60 mins by scintillation counting method relative to control
T5 sequence (whole entry): T2 sequence (P21917 whole entry)

[7] = biological target: T6, Adenosine receptor A1 (Homo sapiens, UniProt P30542); assay: Displacement of [3H]DPCPX from human adenosine […] receptor expressed in […] cell membranes incubated for 60 mins by scintillation counting method
T6 sequence (P30542 whole entry): T4 sequence (whole entry)

[8] = biological target: T3, D(3) dopamine receptor; assay: Displacement of [3H]spiperone from human dopamine D3 receptor expressed in cell membranes at 10 uM incubated for 60 mins by scintillation counting method

T3 sequence (P35462 whole entry): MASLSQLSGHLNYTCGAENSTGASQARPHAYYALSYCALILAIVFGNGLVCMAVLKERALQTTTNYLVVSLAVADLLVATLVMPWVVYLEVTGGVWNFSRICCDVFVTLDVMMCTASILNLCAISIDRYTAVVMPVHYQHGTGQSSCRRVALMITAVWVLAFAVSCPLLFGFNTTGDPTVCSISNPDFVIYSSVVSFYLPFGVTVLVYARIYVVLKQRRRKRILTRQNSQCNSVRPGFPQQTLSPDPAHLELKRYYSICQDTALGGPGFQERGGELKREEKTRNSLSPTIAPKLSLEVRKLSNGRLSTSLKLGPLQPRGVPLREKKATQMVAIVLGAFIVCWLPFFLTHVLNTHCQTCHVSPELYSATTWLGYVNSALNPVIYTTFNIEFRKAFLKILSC
T1 sequence (P29274 whole entry): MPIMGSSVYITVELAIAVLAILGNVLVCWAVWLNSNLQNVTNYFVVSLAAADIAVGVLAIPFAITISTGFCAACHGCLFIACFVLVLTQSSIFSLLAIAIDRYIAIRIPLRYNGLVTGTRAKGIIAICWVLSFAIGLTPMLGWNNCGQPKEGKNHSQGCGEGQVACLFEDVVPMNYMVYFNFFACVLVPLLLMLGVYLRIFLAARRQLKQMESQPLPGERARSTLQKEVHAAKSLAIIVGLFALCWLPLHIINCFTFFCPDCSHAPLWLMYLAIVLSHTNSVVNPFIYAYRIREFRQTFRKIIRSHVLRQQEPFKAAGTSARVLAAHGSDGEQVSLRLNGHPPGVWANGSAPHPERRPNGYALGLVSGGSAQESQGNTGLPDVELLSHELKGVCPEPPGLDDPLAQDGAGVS

Q: What does the source list for `Cc1ccc(C(=O)C2CCN(CC(=O)NC3CCCC3)CC2)cc1`?
A: inhibition [1]: 7%; Ki [2]: 420 nM; Ki [3]: 11000 nM; inhibition [4]: 19%

Q: Which inhibition [1] does the source give for `Cc1cccc2cc(CNCc3ccccc3)c(Cl)nc12` here?
A: Its inhibition is 13%.

Q: What about the Ki [2] of the same compound?
A: The Ki was 550 nM.

Q: And the Ki [3]?
A: The Ki was 1600 nM.

Q: What about the inhibition [4] of the same compound?
A: The inhibition was 13%.

Q: How did the Ki [5] turn out when `CCOC(=O)c1nc(N)c(=O)n(-c2ccccc2)n1` was run?
A: Its Ki is 4900 nM.

Q: What about the inhibition [6] of the same compound?
A: The inhibition was 12%.

Q: And the Ki [7]?
A: The Ki was 2200 nM.

Q: And the inhibition [8]?
A: Its inhibition is 6%.

Q: Which results are given for `Nc1nc(-c2ccccc2)nn1C(=O)c1ccco1`?
A: Ki [5]: 130 nM; inhibition [6]: 7%; Ki [7]: 36 nM; inhibition [8]: 4%
